The values below come from US20230174507A1, “IMIDAZOLE 3-OXIDE DERIVATIVE BASED ACSS2 INHIBITORS AND METHODS OF USE THEREOF” (METABOMED LTD., priority 2020, published 2023).

One test has as its target T1, human ACSS2 protein (Homo sapiens, UniProt Q9NR19).
T1 construct: purchased OriGene Technologies, Inc
Kind of test: ACSS2 cell-free activity assay (pyrophosphatase-coupled, Biomol green). To be noted: 10 nM human ACSS2, 90 minutes at 37 C, absorbance at 620 nm; read-out: ACSS2 Biochemical IC50. The essentials: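 10 nM human ACSS2 incubated 90 min at 37 C with compound, 300 μM ATP, 10 μM CoA, 5 mM NaAc in pH 7.5 Hepes buffer with 0.5 U/ml pyrophosphatase. Released phosphate detected with Biomol Green at 620 nm; IC50 by non-linear regression constrained to 0% and 100%.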

Another test deals with T2, human ACSS1 protein (Homo sapiens, UniProt Q9NUB1).
T2 construct: purchased MyBioSource
T2 sequence (Q9NUB1 38-689): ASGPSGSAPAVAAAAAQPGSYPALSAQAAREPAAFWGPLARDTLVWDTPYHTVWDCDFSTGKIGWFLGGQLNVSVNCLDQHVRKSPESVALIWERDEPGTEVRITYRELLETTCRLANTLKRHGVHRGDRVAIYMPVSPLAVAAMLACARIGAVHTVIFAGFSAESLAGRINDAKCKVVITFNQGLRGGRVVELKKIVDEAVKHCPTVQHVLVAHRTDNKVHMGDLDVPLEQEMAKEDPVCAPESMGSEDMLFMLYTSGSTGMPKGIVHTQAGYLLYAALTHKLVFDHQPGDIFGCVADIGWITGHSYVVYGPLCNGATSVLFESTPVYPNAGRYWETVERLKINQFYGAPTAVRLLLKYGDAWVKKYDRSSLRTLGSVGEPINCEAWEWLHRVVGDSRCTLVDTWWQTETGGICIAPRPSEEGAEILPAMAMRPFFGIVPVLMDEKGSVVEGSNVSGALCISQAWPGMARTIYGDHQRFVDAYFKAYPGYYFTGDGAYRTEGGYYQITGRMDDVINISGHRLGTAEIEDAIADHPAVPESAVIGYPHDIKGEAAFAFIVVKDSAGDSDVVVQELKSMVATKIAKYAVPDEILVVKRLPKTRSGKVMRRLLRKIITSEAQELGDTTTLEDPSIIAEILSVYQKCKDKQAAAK
Kind of test: ACSS1 cell-free activity assay (pyrophosphatase-coupled, Biomol green). In kind it is biochemical. To be noted: 5 nM human ACSS1, 30 minutes at room temperature, absorbance at 620 nm; for IC50: read-out: ACSS1 Biochemical IC50. In a few lines:
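5 nM human ACSS1 incubated 30 min at RT with compound in pH 7.5 Hepes buffer with 15 μM CoA, 5 mM acetate, 300 μM ATP, 2 mM MgCl2 and pyrophosphatase. Released phosphate detected with Biomol Green (30 min), absorbance 620 nm. IC50 from constrained non-linear regression.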

Test [1] has as its target T3, ACSS2 in MDA-MB-468 cells (Homo sapiens, UniProt Q9NR19).
T3 construct: endogenous in cells; host or cells: MDA-MB-468 cells, hypoxia (1% O2)
Kind of test: Cellular fatty-acid IC50: 13C-acetate incorporation into fatty acids (palmitate), LC-MS. In kind it is cell-based. To be noted: hypoxic conditions (1% O2), 75% charcoal stripped serum, 5 hours, 13C-acetate into palmitate, read-out: Cellular Fatty-acid IC50 High Serum MDA468. The method, then: Cellular Fatty-Acid IC50 Determination:
The cellular activity of ACSS2 was measured in MDA-MB-468 cells under hypoxic conditions by tracing the incorporation of labelled carbons from ^13C-acetate into newly synthesized fatty acids. The assay was performed using 75% charcoal stripped serum (high serum conditions).
MDA-MB-468 cells were seeded in 12-well plates (0.35×10^6 cells per well) in plating medium (Dulbecco's Modified Eagle Medium containing 25 mM D-glucose, 1 mM sodium pyruvate, 10% v/v fetal bovine serum, and 2 mM glutamine) and incubated for 24 hours under hypoxic conditions (1% O2).
The next day, tracing medium containing DMEM (01-057-1A) containing 75% charcoal stripped serum (Biological industries 04-201-1A), 3.5 μg/mL Biotin (Sigma-Aldrich B4639), 1 mM Pyruvate, 5.5 mM Glucose, 0.65 mM Glutamine and 0.5 mM ^13C-Acetate (Sigma-Aldrich #282014) with serial dilutions of the compounds in the range of 0.000512-1000 nM were prepared. The plating medium was replaced with 1 mL tracing medium plus compounds and the cells were incubated for 5 hours under hypoxic conditions (1% O2). Plating medium in control wells (without cells or without compounds) was replaced with 1 mL tracing medium containing 0.01% v/v DMSO.
The level of ^13C-acetate incorporation into fatty acids (palmitate) was measured by LC-MS analysis and IC50 as described below:
Sample Preparation for LC-MS
• a) Cells were washed twice with cold phosphate buffered saline (PBS), scraped into 0.5 mL EDTA pH 8.0, and transferred into 1.1 mL V-shaped HPLC glass tubes. • b) The cell suspensions were centrifuged for 5 minutes at 400×g, 4° C. and the supernatants were removed. • c) Cell pellets were frozen at −80° C.
• d) Cell pellets were resuspended in 0.2 mL of 80% v/v ethanol in water containing 0.02 M NaOH in 1.1 ml glass (v-bottom) HPLC vials. • e) The vials were closed tight and incubated at 66° C. for 60 minutes. • f) Acetonitrile containing 2% v/v formic acid (150 μL) was added to each vial and the mixtures were transferred to Eppendorf tubes for centrifugation at 17 000×g for 20 minutes. • g) Supernatants were transferred to LC-MS vials.
The relative palmitate concentration was measured by LC-MS in reconstructed selected ion monitoring (RSIM) mode and negative ion mode. Samples were analyzed on a Phenomenex Kinetex 2.6 μm XB-C18 150×2.1 mm column at 45° C. (0.4 mL/minute flow rate) using: • a) A gradient from 15% A/85% C to 100% C for 0 to 2 minutes (A: water containing 5% v/v acetonitrile, 10 mM ammonium acetate, and 10 mM acetic acid; C: a mixture of 50% v/v acetonitrile and 50% v/v methanol). • b) Isocratic flow (100% C) for 2 to 5 minutes. • c) Equilibration in isocratic conditions (15% A/85% C) for 5 to 8 minutes.
Palmitate was eluted at approximately 3.4 minutes.
The percent inhibition was calculated relative to the sample without compound and after background deduction. IC50 values were calculated using non-linear regression curve fit analysis with 0% and 100% constraints (CDD Vault, Collaborative Drug Discovery, Inc. or GraphPad Prism).
The inhibitory activities of each compound against ACSS2 in MDA-MB-468 cells under high serum conditions, as determined by ^13C-acetate incorporation into fatty acids (palmitate), are presented in Table 2.

T3 sequence (Q9NR19 whole entry): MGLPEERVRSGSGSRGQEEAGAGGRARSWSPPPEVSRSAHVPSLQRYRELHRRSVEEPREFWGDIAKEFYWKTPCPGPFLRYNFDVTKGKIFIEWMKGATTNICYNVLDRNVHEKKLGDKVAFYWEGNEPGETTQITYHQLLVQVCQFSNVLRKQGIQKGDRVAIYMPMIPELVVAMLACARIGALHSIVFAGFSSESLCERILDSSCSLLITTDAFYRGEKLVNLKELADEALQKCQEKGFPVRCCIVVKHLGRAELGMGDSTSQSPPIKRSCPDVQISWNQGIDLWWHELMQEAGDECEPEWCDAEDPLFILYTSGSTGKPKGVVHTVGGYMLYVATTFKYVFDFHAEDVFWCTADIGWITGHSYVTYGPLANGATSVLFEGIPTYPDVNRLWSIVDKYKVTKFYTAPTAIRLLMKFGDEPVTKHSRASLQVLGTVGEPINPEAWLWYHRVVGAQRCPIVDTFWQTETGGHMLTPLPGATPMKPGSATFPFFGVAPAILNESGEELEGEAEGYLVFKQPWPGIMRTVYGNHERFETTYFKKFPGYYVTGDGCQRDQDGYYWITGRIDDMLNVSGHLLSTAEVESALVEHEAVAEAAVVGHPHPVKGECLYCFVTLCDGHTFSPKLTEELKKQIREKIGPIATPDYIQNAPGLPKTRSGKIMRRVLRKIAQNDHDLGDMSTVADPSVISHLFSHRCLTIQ
T1 sequence (Q9NR19 whole entry): as above

Turning to `Cc1cccc(C)c1-c1cc(F)cc(-c2[nH]c(C)c(C(=O)Nc3cccc(C(F)(F)C4CC4)c3)[n+]2[O-])c1` [Compound 129, 4-((3-(cyclopropyldifluoromethyl)phenyl)carbamoyl)-2-(5-fluoro-2′,6′-dimethyl-[1,1′-biphenyl]-3-yl)-5-methyl-1H-imidazole 3-oxide], the IC50 at human ACSS2 protein is < 0.001 µM; in test [1] it was > 0.05 µM. Also, on human ACSS1 protein, the “ACSS1 Biochemical IC50 (nM)” value is “Inactive”.
As for `CNC(=O)c1cccc(NC(=O)c2c(C)[nH]c(-c3ccc(OC)c(-c4c(C)cccc4C)n3)[n+]2[O-])c1` [Compound 186, 2-(6-(2,6-dimethylphenyl)-5-methoxypyridin-2-yl)-5-methyl-4-((3-(methylcarbamoyl)phenyl)carbamoyl)-1H-imidazole 3-oxide], the half-inhibitory concentration (IC50) at human ACSS2 protein is < 0.001 µM; in test [1], < 0.02 µM. Also, on human ACSS1 protein, the “ACSS1 Biochemical IC50 (nM)” value was “Inactive”.
With `CNC(=O)c1cccc(NC(=O)c2c(C)[nH]c(-c3cc(NC)cc(-c4c(C)cccc4C)c3)[n+]2[O-])c1` [Compound 181, 2-(2′,6′-dimethyl-5-(methylamino)-[1,1′-biphenyl]-3-yl)-5-methyl-4-((3-(methylcarbamoyl)phenyl)carbamoyl)-1H-imidazole 3-oxide], the half-inhibitory concentration (IC50) at human ACSS2 protein is < 0.001 µM; on human ACSS1 protein, > 0.03 µM; in test [1], < 0.02 µM.
Regarding `CNC(=O)c1cccc(NC(=O)c2c(C)[nH]c(-c3ccc(OC)c(-c4c(F)cccc4F)c3)[n+]2[O-])c1` [Compound 184, 2-(2′,6′-difluoro-6-methoxy-[1,1′-biphenyl]-3-yl)-5-methyl-4-((3-(methylcarbamoyl)phenyl)carbamoyl)-1H-imidazole 3-oxide], the IC50 at human ACSS2 protein was < 0.001 µM; in test [1], < 0.02 µM. On human ACSS1 protein, the “ACSS1 Biochemical IC50 (nM)” value is reported as “Inactive”.
The like results for `CCC(F)(F)c1cccc(NC(=O)c2c(C)[nH]c(-c3cc(-c4c(C)cccc4C)c(OC)cc3O)[n+]2[O-])c1` [Compound 123, 4-((3-(1,1-difluoropropyl)phenyl)carbamoyl)-2-(4-hydroxy-6-methoxy-2′,6′-dimethyl-[1,1′-biphenyl]-3-yl)-5-methyl-1H-imidazole 3-oxide] were, in that order, < 0.001 µM, < 0.02 µM and “Inactive”.
`CCC(F)(F)c1cccc(NC(=O)c2c(C)[nH]c(-c3ccc(OC)c(-c4c(C)cccc4C)n3)[n+]2[O-])c1` [Compound 149, 4-((3-(1,1-difluoropropyl)phenyl)carbamoyl)-2-(6-(2,6-dimethylphenyl)-5-methoxypyridin-2-yl)-5-methyl-1H-imidazole 3-oxide]: the half-maximal inhibitory concentration (IC50) is < 0.001 µM on human ACSS2 protein and < 0.02 µM in test [1]. Further, at human ACSS1 protein, the “ACSS1 Biochemical IC50 (nM)” value was “Inactive”.
As to `COc1ccc(-c2[nH]c(C)c(C(=O)Nc3cccc(-c4ncon4)c3)[n+]2[O-])cc1-c1c(C)cccc1C` [Compound 190, 4-((3-(1,2,4-oxadiazol-3-yl)phenyl)carbamoyl)-2-(6-methoxy-2′,6′-dimethyl-[1,1′-biphenyl]-3-yl)-5-methyl-1H-imidazole 3-oxide], the half-inhibitory concentration (IC50) on human ACSS2 protein was < 0.001 µM; in test [1], < 0.02 µM. Further, on human ACSS1 protein, the “ACSS1 Biochemical IC50 (nM)” value is “Inactive”.
With `CNc1cc(-c2c(C)cccc2C)cc(-c2[nH]c(C)c(C(=O)Nc3cccc(C(F)(F)C4CC4)c3)[n+]2[O-])c1` [Compound 147, 4-((3-(cyclopropyldifluoromethyl)phenyl)carbamoyl)-2-(2′,6′-dimethyl-5-(methylamino)-[1,1′-biphenyl]-3-yl)-5-methyl-1H-imidazole 3-oxide], the results for the IC50 (at human ACSS2 protein; in test [1]) were 0.001 to 0.03 µM and 0.02 to 0.05 µM, respectively. Also, the “ACSS1 Biochemical IC50 (nM)” value on human ACSS1 protein was “Inactive”.
For `COc1cc(F)c(-c2[nH]c(C)c(C(=O)Nc3cccc(C(F)(F)C4CC4)c3)[n+]2[O-])nc1-c1c(C)cccc1C` [Compound 202, 4-((3-(cyclopropyldifluoromethyl)phenyl)carbamoyl)-2-(6-(2,6-dimethylphenyl)-3-fluoro-5-methoxypyridin-2-yl)-5-methyl-1H-imidazole 3-oxide], the values for the IC50 (on human ACSS2 protein; in test [1]) were < 0.001 µM and > 0.05 µM, respectively. The “ACSS1 Biochemical IC50 (nM)” value at human ACSS1 protein is recorded as “Inactive”.
The like results for `Cc1cccc(C)c1-c1cc(-c2[nH]c(C)c(C(=O)Nc3cccc(C(F)(F)F)c3)[n+]2[O-])ccc1F` [Compound 203, 2-(6-fluoro-2′,6′-dimethyl-[1,1′-biphenyl]-3-yl)-5-methyl-4-((3-(trifluoromethyl)phenyl)carbamoyl)-1H-imidazole 3-oxide] were, in that order, < 0.001 µM, > 0.05 µM and “Inactive”.
Take `CNC(=O)c1cccc(NC(=O)c2c(C)[nH]c(-c3ccc(F)c(-c4c(C)cccc4C)c3)[n+]2[O-])c1` [Compound 177, 2-(6-fluoro-2′,6′-dimethyl-[1,1′-biphenyl]-3-yl)-5-methyl-4-((3-(methylcarbamoyl)phenyl)carbamoyl)-1H-imidazole 3-oxide]: the half-maximal inhibitory concentration (IC50) is < 0.001 µM at human ACSS2 protein, > 0.03 µM on human ACSS1 protein and < 0.02 µM in test [1].
Regarding `CCC(F)(F)c1cccc(NC(=O)c2c(C)[nH]c(-c3cc(CCN4CCOCC4)c(OC)c(-c4c(C)cccc4C)c3)[n+]2[O-])c1` [Compound 192, 4-((3-(1,1-difluoropropyl)phenyl)carbamoyl)-2-(6-methoxy-2′,6′-dimethyl-5-(2-morpholinoethyl)-[1,1′-biphenyl]-3-yl)-5-methyl-1H-imidazole 3-oxide], the results for the IC50 (on human ACSS2 protein; on human ACSS1 protein; in test [1]) were < 0.001 µM, > 0.03 µM and 0.02 to 0.05 µM, respectively.
`COc1ccc(-c2[nH]c(C)c(C(=O)Nc3cccc(C(F)(F)C4CC4)c3)[n+]2[O-])cc1-c1c(C)cccc1C` [Compound 104, 4-((3-(cyclopropyldifluoromethyl)phenyl)carbamoyl)-2-(6-methoxy-2′,6′-dimethyl-[1,1′-biphenyl]-3-yl)-5-methyl-1H-imidazole 3-oxide]: the IC50 is < 0.001 µM at human ACSS2 protein and 0.02 to 0.05 µM in test [1]. Also, at human ACSS1 protein, the “ACSS1 Biochemical IC50 (nM)” value was “Inactive”.
